From US8518942B2, “Caspase inhibitors and uses thereof” (Buck Institute for Research on Aging, priority 2008, dated 2013)

Key:
caspase-5 = biological target: T1, caspase-5 (Homo sapiens, UniProt P51878); experiment: Irreversible inhibitor kinetic assay (progress curve), caspase-5, substrate Ac-WEHD-AMC; assay type: biochemical; settings: casp-5; duplicate, SD included
T1 sequence (P51878 137-327 limits assumed): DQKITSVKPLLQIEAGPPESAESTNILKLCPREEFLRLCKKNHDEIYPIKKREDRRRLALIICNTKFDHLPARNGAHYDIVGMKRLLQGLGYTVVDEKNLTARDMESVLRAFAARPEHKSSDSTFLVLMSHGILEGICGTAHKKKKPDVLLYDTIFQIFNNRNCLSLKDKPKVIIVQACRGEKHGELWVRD
T1 sequence (P51878 347-434 limits assumed): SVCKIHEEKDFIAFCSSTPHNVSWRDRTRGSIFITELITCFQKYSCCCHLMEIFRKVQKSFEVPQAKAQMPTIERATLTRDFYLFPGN
Excerpt: (§1) Caspases-3, -6, -7, -8, and -9 were provided by Guy Salvesen's laboratory at the Burnham Institute (La Jolla, Calif.). Caspase-1 was purchased from EMD Biosciences (San Diego, Calif.) and Caspase-2 was purchased from Biomol International (Plymouth Meeting, Pa.). Caspase substrates Ac-DEVD-AMC, Ac-VDVAD-AFC, and Ac-LEHD-AFC were purchased from EMD Biosciences (San Diego, Calif.) and Ac-VDVAD-AMC was purchased from Biomol International (Plymouth Meeting, Pa.). The proteolytic cleavage of N-acyl aminocoumarins by caspases was conducted in Dynatech Microfluor fluorescence 96-well microtiter plates, and readings were taken on a Molecular Devices Spectra Max Gemini XS instrument. The excitation wavelength was 370 nm and the emission wavelength was 455 nm for AMCA substrates, the excitation wavelength was 355 nm and the emission wavelength was 450 nm for peptidyl AMC substrates, and the excitation wavelength was 430 nm and the emission wavelength was 535 nm for peptidyl AFC substrates.
(§2) The kinact/Ki for inhibitors were determined under pseudo-first order conditions using the progress curve method (Eckici et al. (2006) J. Med. Chem., 49: 5728-5749; Bieth (1995) Meth. Enzymol., 248: 59-84). Assay wells contained a mixture of inhibitor and AMC or AFC substrate in buffer. Aliquots of caspase were added to each well to initiate the assay. Hydrolysis of the AMC or AFC substrate was monitored fluorometrically for 45 min. To determine the inhibition parameters, time points for which the control ([I]=0) was linear were used. For each inhibitor, a kobs was calculated for at least four different concentrations of inhibitors via a nonlinear regression of the data according to the equation P=(vi/kobs)[1−exp(−kobst) (where product formation=P, […], and the first-order rate constant=kobs). If kobs varied linearly with [I], then the association constant kass was determined by linear regression analysis using kobs=(kass[I])/(1+[S]/Km) where [S] is the concentration of the substrate. […] Inhibition was measured in duplicate and the average of is reported. […]

Hdh111Q cells = experiment: Evaluation of inhibitors in Hdh111Q cells (toxicity, caspase activation); assay type: cell-based; settings: for Hdh111Q mediated toxicity: 1-100 nM; for Caspase activation in Hdh111Q cells: FIG. 18
caspase-2 = biological target: T2, caspase-2 (Homo sapiens, UniProt P42575); experiment: Irreversible inhibitor kinetic assay (progress curve), caspase-2, substrate Ac-VDVAD-AMC; assay type: biochemical; settings: casp-2; duplicate, SD included
T2 sequence (P42575 170-325 limits assumed): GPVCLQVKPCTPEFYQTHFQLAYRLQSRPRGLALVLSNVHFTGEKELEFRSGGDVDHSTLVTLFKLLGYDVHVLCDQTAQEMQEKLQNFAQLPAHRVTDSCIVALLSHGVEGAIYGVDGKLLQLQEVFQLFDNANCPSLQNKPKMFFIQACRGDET
T2 sequence (P42575 348-452 limits assumed): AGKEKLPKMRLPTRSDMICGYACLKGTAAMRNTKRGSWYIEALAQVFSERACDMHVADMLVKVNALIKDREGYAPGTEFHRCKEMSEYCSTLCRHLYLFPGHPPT
Excerpt: as §1, §2

## C[C@@](NC(=O)CCCC(=O)O)(c1cn([C@@H](CC(=O)O)C(=O)COc2c(F)c(F)cc(F)c2F)nn1)C1CCCCC1 [MJL-002i]
caspase-5
  kinact/Ki: 16,500 ± 850 s^−1/M^−1
Hdh111Q cells
  Hdh111Q mediated toxicity: suppressed
  Caspase activation in Hdh111Q cells: block
caspase-2
  kass (kinact/Ki, footnote a): 2.0 ± 0.1 s^−1/M^−1

## C[C@@](NS(=O)(=O)Cc1ccccc1)(c1cn([C@@H](CC(=O)O)C(=O)COc2c(F)c(F)cc(F)c2F)nn1)C1CCCCC1 [MJL-001i]
caspase-5
  kinact/Ki: 2,250 ± 350 s^−1/M^−1
Hdh111Q cells
  Hdh111Q mediated toxicity: suppressed
  Caspase activation in Hdh111Q cells: block
caspase-2
  kass (kinact/Ki, footnote a): 33.0 ± 0.5 s^−1/M^−1

## C[C@@](NC(=O)Cc1ccccc1)(c1cn([C@@H](CC(=O)O)C(=O)COc2c(F)c(F)cc(F)c2F)nn1)C1CCCCC1 [MJL-003i]
caspase-5
  kinact/Ki: 3,300 ± 200 s^−1/M^−1
Hdh111Q cells
  Hdh111Q mediated toxicity: suppressed
  Caspase activation in Hdh111Q cells: block
Hdh111Q cells; among MJL-001i, MJL-002i, MJL-003i
  Rank of potency in blocking caspase activation in Hdh111Q cells: most potent
caspase-2
  kass (kinact/Ki, footnote a): 6.90 ± 0.3 s^−1/M^−1
